We go through 20 compounds from patent publication US10106530B2, “Pyrazolyl substituted tetrahydropyranylsulfones” (GRÜNENTHAL GMBH, priority 2015, dated 2018).

The experiment has as its target T1, Human CaV2.2 channels (Homo sapiens, UniProt Q00975).
T1 construct: expressed in transfected cells; also stably expressing Kir2.3)
Description: Fluorescence assay for CaV2.2 channels using potassium depolarization to induce channel opening (FLIPR, Fluo 4). The experiment is classed as cell-based. The conditions noted are these: 30 mM KCl assay buffer (inactivated channel state), HEK293 cells; for inhibition at 3 µM: HEK293, 3 μM test compound, read-out: Activity Category: %-Inhib (CaV2.2) @3 μM @30 mM KCl; for Activity Category: %-Inhib (CaV2.2) @3 μM @30 mM KCl: 3 μM test compound. An excerpt: In the process, the Ca^2+ influx is quantified in the FLIPR assay with the aid of a Ca^2+-sensitive dye (type Fluo-4, Molecular Probes Europe BV, Leiden, the Netherlands) in a fluorescent imaging plate reader (FLIPR 3, Molecular Devices, Sunnyvale, USA), as described hereinafter.
[drawing 69] 2. Assay Descriptions and Biological Data: 2.1 Fluorescence Assay for CaV2.2 Channels Using Potassium Depolarization to Induce Channel Opening
Human CaV2.2 channels were stably expressed in HEK293 cells together with alpha2-delta and beta subunits of voltage gated calcium channels. In addition, an inwardly rectifying potassium channel (Kir2.3) was stably expressed in these cells to augment control of the cell membrane potential by the concentration of extracellular potassium ions. Raise of the extracellular potassium concentration leads to depolarization of the membrane potential and thus regulates the voltage dependent state of CaV2.2 channels. For preparation, cells were seeded in black poly-D-lysine coated 96-well plates (Becton Dickinson, Biocoat 4640) in 100 μL medium [500 mL DMEM/F-12 plus Glutamax (Invitrogen 31331-093) plus 5.5 mL MEM NEAA 100× (Invitrogen 11140-035) plus 50 mL FBS decomplemented (Invitrogen 10270-106) plus 200 μg/mL Geneticin (Invitrogen 10131-027) plus 50 μg/mL Hygromycin B (Invitrogen 10687-010) plus 2 μg/mL Blasticidin (anti-b15b Invivo-Gen) plus 0.2 μg/mL Puromycin (A 11138-03)] at a cell density of 30.000 cells per well. Plates were incubated at 37° C. (5% CO2) for 20 to 23 h. On the day of experiment medium was discarded and cells were loaded with Fluo 4 by addition of 100 μL of basic assay buffer (10 mM HEPES, 1 mM KCl, 149 mM NaCl, 0.8 mM CaCl2, 1.7 mM MgCl2, 10 mM Glucose, 0.1% BSA. pH 7.4) containing 2 μM Fluo 4 (Molecular Probes; F-14201), 0.01% pluronic acid (Molecular Probes; P-6866) and 2.5 mM probenecid (Molecular Probes; P36400). Cells were incubated in the dark at 25° C. for 60 min. Then dye containing buffer was discarded and 100 μL basic (1 mM KCl) or alternative (30 mM KCl) assay buffer was added. The alternative assay buffer contained altered concentrations of KCl (30 mM) and NaCl (120 mM) and was used in order to promote the inactivated channel state. After that 25 μL of basic or alternative assay buffer with or without test compound were added and cells were incubated again in the dark at 25° C. for 15 min. Fluorescence intensity was measured on a FLIPR 3 instrument (Molecular Devices Corp., Sunnyvale, Calif.) with excitation at 480 nm and emission at 535 nm. After continuously reading fluorescence for 30 sec, 50 μL of basic assay buffer containing 210 mM KCl(NaCl omitted) were added for depolarization. Peak fluorescent signal intensity was determined and the amplitude of the peak signal, normalized to base line, was used to measure channel inhibition by test compounds.

T1 sequence (Q00975 whole entry): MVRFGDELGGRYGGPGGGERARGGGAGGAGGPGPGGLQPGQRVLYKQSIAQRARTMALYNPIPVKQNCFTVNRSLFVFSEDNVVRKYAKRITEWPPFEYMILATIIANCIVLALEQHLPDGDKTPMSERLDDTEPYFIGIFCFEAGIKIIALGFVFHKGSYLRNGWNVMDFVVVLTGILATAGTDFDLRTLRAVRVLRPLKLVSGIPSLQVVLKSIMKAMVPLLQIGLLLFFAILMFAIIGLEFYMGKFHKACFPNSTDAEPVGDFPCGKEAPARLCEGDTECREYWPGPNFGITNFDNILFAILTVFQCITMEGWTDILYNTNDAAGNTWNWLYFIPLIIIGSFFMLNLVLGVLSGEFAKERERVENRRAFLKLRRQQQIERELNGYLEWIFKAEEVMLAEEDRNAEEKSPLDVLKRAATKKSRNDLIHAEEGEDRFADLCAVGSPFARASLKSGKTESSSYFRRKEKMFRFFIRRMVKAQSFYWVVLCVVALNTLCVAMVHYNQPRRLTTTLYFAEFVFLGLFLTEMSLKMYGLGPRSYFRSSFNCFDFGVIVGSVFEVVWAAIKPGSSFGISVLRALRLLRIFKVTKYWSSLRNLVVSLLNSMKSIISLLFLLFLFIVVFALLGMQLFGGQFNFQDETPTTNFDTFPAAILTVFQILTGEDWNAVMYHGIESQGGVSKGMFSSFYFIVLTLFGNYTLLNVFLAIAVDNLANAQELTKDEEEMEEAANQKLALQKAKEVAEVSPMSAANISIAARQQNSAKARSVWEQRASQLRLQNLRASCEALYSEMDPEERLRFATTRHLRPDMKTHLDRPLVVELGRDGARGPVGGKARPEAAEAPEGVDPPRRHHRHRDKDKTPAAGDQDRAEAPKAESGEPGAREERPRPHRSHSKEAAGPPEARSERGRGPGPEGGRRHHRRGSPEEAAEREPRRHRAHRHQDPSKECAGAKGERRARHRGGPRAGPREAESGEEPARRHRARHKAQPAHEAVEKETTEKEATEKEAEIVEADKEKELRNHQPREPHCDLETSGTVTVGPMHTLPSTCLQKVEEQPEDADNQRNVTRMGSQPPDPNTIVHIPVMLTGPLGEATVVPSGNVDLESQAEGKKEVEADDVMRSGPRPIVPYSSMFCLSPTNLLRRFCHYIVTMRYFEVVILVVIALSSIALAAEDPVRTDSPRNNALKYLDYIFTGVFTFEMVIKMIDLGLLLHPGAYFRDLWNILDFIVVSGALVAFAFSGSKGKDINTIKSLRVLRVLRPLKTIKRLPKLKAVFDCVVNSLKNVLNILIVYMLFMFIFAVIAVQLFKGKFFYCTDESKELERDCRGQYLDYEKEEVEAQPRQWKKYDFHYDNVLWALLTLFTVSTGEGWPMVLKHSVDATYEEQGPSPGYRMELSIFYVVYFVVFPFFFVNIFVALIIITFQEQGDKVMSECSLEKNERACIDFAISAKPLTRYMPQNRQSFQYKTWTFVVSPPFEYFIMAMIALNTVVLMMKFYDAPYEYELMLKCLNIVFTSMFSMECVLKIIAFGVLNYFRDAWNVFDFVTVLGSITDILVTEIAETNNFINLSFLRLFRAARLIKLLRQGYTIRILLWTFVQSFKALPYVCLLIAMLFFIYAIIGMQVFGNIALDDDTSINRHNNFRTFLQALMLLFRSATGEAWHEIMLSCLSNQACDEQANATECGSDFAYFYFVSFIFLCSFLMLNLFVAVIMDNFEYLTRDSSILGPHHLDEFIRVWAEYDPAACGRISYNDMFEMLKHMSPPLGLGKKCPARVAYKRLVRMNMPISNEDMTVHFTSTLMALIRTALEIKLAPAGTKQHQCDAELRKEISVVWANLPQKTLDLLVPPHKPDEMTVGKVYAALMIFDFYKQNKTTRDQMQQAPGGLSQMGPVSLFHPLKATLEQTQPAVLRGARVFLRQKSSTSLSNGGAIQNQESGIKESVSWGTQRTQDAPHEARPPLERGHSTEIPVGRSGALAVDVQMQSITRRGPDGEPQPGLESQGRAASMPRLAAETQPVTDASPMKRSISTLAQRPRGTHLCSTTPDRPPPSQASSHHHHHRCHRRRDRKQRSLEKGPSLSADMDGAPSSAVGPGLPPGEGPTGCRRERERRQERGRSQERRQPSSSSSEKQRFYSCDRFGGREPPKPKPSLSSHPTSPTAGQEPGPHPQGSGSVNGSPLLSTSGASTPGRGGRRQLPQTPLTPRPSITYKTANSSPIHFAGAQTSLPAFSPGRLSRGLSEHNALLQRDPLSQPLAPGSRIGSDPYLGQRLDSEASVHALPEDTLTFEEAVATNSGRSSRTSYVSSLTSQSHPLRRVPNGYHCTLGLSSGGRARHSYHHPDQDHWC

As to `CC1(S(=O)(=O)c2cccc(C(F)(F)F)c2)CCOC(c2cc(CC(F)(F)F)n[nH]2)C1` (racemic) [Example 15 cis-rac, 5-[4-Methyl-4-[[3-(trifluoromethyl)phenyl]sulfonyl]-tetrahydro-pyran-2-yl]-3-(2,2,2-trifluoro-ethyl)-1H-pyrazole], the inhibition at 3 µM is > 95%.

Regarding `C[C@@]1(S(=O)(=O)c2cccc(C(F)(F)F)c2)CCO[C@@H](c2cc(S(=O)(=O)C(F)F)n[nH]2)C1` (racemic) [[trans-rac] Example 1, 3-(Difluoro-methylsulfonyl)-5-[4-methyl-4-[[3-(trifluoromethyl)phenyl]sulfonyl]-tetrahydro-pyran-2-yl]-1H-pyrazole], the inhibition at 3 µM fell in the range of 75 to 95%.

Consider `CC1(S(=O)(=O)c2cccc(C(F)(F)F)c2)CCOC(c2cc(C(F)F)[nH]n2)C1` (racemic) [[trans-rac] Example 12, 5-(Difluoro-methyl)-3-[4-methyl-4-[[3-(trifluoromethyl)phenyl]sulfonyl]-tetrahydro-pyran-2-yl]-1H-pyrazole], for which the inhibition at 3 µM lay within 75 to 95%.

Regarding `CC1(S(=O)(=O)c2cccc(C(F)(F)F)c2)CCOC(c2cc(S(=O)(=O)CC(F)F)n[nH]2)C1` (stereo not drawn) [Example 3 cis-EN1, 3-(2,2-Difluoro-ethylsulfonyl)-5-[4-methyl-4-[[3-(trifluoromethyl)phenyl]sulfonyl]-tetrahydro-pyran-2-yl]-1H-pyrazole], the inhibition at 3 µM was 30 to 40%.

As to `CC1(S(=O)(=O)c2cccc(C(F)(F)F)c2)CCOC(c2cc(S(=O)(=O)C3COC3)n[nH]2)C1` (stereo not drawn) [Example 4 cis-EN1, 5-[4-Methyl-4-[[3-(trifluoromethyl)phenyl]sulfonyl]-tetrahydro-pyran-2-yl]-3-(oxetan-3-ylsulfonyl)-1H-pyrazole], the “Activity Category: %-Inhib (CaV2.2) @3 μM @30 mM KCl” value (“Activity Category: %-Inhib” below) (listed as 4 cis-EN1) is listed as “C (%-Inhibition >40% up to ≤75%)”.

For `CC1(S(=O)(=O)c2cccc(C(F)(F)F)c2)CCOC(c2cc(S(=O)(=O)C3COC3)n[nH]2)C1` (stereo not drawn) [Example 4 cis-EN2, 5-[4-Methyl-4-[[3-(trifluoromethyl)phenyl]sulfonyl]-tetrahydro-pyran-2-yl]-3-(oxetan-3-ylsulfonyl)-1H-pyrazole], the “Activity Category: %-Inhib” value (listed as 4 cis-EN2) is “B (%-Inhibition >75% up to ≤95%)”.

`COCCS(=O)(=O)c1cc(C2CC(C)(S(=O)(=O)c3cccc(C(F)(F)F)c3)CCO2)[nH]n1` (stereo not drawn) [Example 5 cis-EN1, 3-(2-Methoxy-ethylsulfonyl)-5-[4-methyl-4-[[3-(trifluoromethyl)phenyl]sulfonyl]-tetrahydro-pyran-2-yl]-1H-pyrazole]: the “Activity Category: %-Inhib” value (listed as 5 cis-EN1) is “B (%-Inhibition >75% up to ≤95%)”.

Consider `COCCS(=O)(=O)c1cc(C2CC(C)(S(=O)(=O)c3cccc(C(F)(F)F)c3)CCO2)[nH]n1` (stereo not drawn) [Example 5 cis-EN2, 3-(2-Methoxy-ethylsulfonyl)-5-[4-methyl-4-[[3-(trifluoromethyl)phenyl]sulfonyl]-tetrahydro-pyran-2-yl]-1H-pyrazole], for which the “Activity Category: %-Inhib” value (listed as 5 cis-EN2) is listed as “C (%-Inhibition >40% up to ≤75%)”.

On to `CC(C)(c1cc(C2CC(C)(S(=O)(=O)c3cccc(C(F)(F)F)c3)CCO2)[nH]n1)S(C)(=O)=O` (stereo not drawn) [Example 7 cis-EN1, 3-(1-Methyl-1-methylsulfonyl-ethyl)-5-[4-methyl-4-[[3-(trifluoromethyl)phenyl]sulfonyl]-tetrahydro-pyran-2-yl]-1H-pyrazole], for which the inhibition at 3 µM was in the range of 75 to 95%.

As to `CC1(S(=O)(=O)c2cccc(C(F)(F)F)c2)CCOC(c2cc(CCS(C)(=O)=O)n[nH]2)C1` (stereo not drawn) [Example 9 cis-EN1, 3-(2-Methylsulfonyl-ethyl)-5-[4-methyl-4-[[3-(trifluoromethyl)phenyl]sulfonyl]-tetrahydro-pyran-2-yl]-1H-pyrazole], the inhibition at 3 µM is 40 to 75%.

For `CC(F)(F)c1cc(C2CC(C)(S(=O)(=O)c3cccc(C(F)(F)F)c3)CCO2)[nH]n1` (stereo not drawn) [Example 13 cis-EN1, 3-(1,1-Difluoro-ethyl)-5-[4-methyl-4-[[3-(trifluoromethyl)phenyl]sulfonyl]-tetrahydro-pyran-2-yl]-1H-pyrazole], the inhibition at 3 µM was > 95%.

As for `CC1(S(=O)(=O)c2cccc(C(F)(F)F)c2)CCOC(c2cc(CC(F)F)n[nH]2)C1` (stereo not drawn) [Example 14 cis-EN1, 3-(2,2-Difluoro-ethyl)-5-[4-methyl-4-[[3-(trifluoromethyl)phenyl]sulfonyl]-tetrahydro-pyran-2-yl]-1H-pyrazole], the inhibition at 3 µM was in the range of 75 to 95%.

As to `CC1(S(=O)(=O)c2cccc(C(F)(F)F)c2)CCOC(c2cc(CC(F)F)n[nH]2)C1` (stereo not drawn) [Example 14 cis-EN2, 3-(2,2-Difluoro-ethyl)-5-[4-methyl-4-[[3-(trifluoromethyl)phenyl]sulfonyl]-tetrahydro-pyran-2-yl]-1H-pyrazole], the “Activity Category: %-Inhib” value was “A (%-Inhibition >95%)”.

Regarding `CC1(S(=O)(=O)c2cccc(C(F)(F)F)c2)CCOC(c2cc(OCC(F)(F)F)n[nH]2)C1` (stereo not drawn) [Example 16 cis-EN2, 5-[4-Methyl-4-[[3-(trifluoromethyl)phenyl]sulfonyl]-tetrahydro-pyran-2-yl]-3-(2,2,2-trifluoro-ethoxy)-1H-pyrazole], the inhibition at 3 µM was > 95%.

In the case of `CC1(S(=O)(=O)c2cccc(C(F)(F)F)c2)CCOC(c2cc(C3(O)COC3)n[nH]2)C1` (stereo not drawn) [Example 18 cis-EN1, 3-[5-[4-Methyl-4-[[3-(trifluoromethyl)phenyl]sulfonyl]-tetrahydro-pyran-2-yl]-1H-pyrazol-3-yl]-oxetan-3-ol], the inhibition at 3 µM fell in the range of 40 to 75%.

Turning to `CC(C)(O)c1cc(C2CC(C)(S(=O)(=O)c3cccc(C(F)(F)F)c3)CCO2)[nH]n1` (stereo not drawn) [Example 19 cis-EN1, 2-[5-[4-Methyl-4-[[3-(trifluoromethyl)phenyl]sulfonyl]-tetrahydro-pyran-2-yl]-1H-pyrazol-3-yl]-propan-2-ol], the “Activity Category: %-Inhib” value (listed as 19 cis-EN1) was “B (%-Inhibition >75% up to ≤95%)”.

Consider `CC(C)(O)c1cc(C2CC(C)(S(=O)(=O)c3cccc(C(F)(F)F)c3)CCO2)[nH]n1` (stereo not drawn) [Example 19 cis-EN2, 2-[5-[4-Methyl-4-[[3-(trifluoromethyl)phenyl]sulfonyl]-tetrahydro-pyran-2-yl]-1H-pyrazol-3-yl]-propan-2-ol], for which, where the note is “listed as 19 cis-EN2”, the “Activity Category: %-Inhib” value is “C (%-Inhibition >40% up to ≤75%)”.

On to `CC1(S(=O)(=O)c2cccc(C(F)(F)F)c2)CCOC(c2cc(S(=O)(=O)C(F)(F)F)n[nH]2)C1` (stereo not drawn) [Example 27 cis-EN1, 3-(Trifluoro-methylsulfonyl)-5-[4-methyl-4-[[3-(trifluoromethyl)phenyl]sulfonyl]-tetrahydro-pyran-2-yl]-1H-pyrazole], for which the inhibition at 3 µM is > 95%.

For `CC1(S(=O)(=O)c2cccc(C(F)(F)F)c2)CCOC(c2cc(S(=O)(=O)C(F)(F)F)n[nH]2)C1` (stereo not drawn) [Example 27 cis-EN2, 3-(Trifluoro-methylsulfonyl)-5-[4-methyl-4-[[3-(trifluoromethyl)phenyl]sulfonyl]-tetrahydro-pyran-2-yl]-1H-pyrazole], the “Activity Category: %-Inhib” value was “B (%-Inhibition >75% up to ≤95%)”.

Regarding `CC1(S(=O)(=O)c2cccc(C(F)(F)F)c2)CCOC(c2cc(CS(=O)(=O)C(F)F)n[nH]2)C1` (stereo not drawn) [Example 28 cis-EN1, 3-[(Difluoro-methylsulfonyl)-methyl]-5-[4-methyl-4-[[3-(trifluoromethyl)phenyl]sulfonyl]-tetrahydro-pyran-2-yl]-1H-pyrazole], the inhibition at 3 µM is 75 to 95%.
